Data taken from US20220298146A1, “HETEROCYCLIC DERIVATIVE AND USE THEREOF” (Transthera Sciences (Nanjing), Inc., priority 2019, published 2022).
Like-named read-outs stand apart in the source and are kept apart here.

Assay: Beagle PK evaluation experiment
Format: in vivo
Conditions: dog, plasma; for AUC(0-t) / clearance / Vd / half-life / Tmax: dose 1 mg/kg; for clearance: n=3, read-out: Cl_obs iv (clearance rate) (converted); for Vd: n=3, read-out: Vz_obs iv (apparent volume of distribution); for bioavailability: iv/po dose 1/1 mg/kg, n=3, read-out: F % (absolute bioavailability); for Tmax: n=3, median, read-out: Tmax po (time to maximum plasma concentration)
Procedure: Test samples: the compounds of the present invention, prepared according to exemplary methods.
Administration and Sample Collection:
Experimental compounds 11, 12 and 35 were each dissolved in a mixture of 5% DMSO+20% (30% Solutol)+75% saline to prepare solutions. The compound solutions were administrated via intragastric gavage to beagles at a dose of 1.0 mg/kg, respectively. The blood was collected at time points of 0 min, 15 min, 30 min, 1 h, 2 h, 4 h, 6 h, 8 h, 10 h and 24 h.
(§1) Experimental compounds 11, 12 and 35 were each dissolved in a mixture of 5% DMSO+20% (30% Solutol)+75% saline to prepare solutions. The compound solutions were intravenously injected into beagles at a dose of 1.0 mg/kg, respectively. The blood was collected at time points of 0 min, 5 min, 15 min, 30 min, 1 h, 2 h, 4 h, 6 h, 8 h, 10 h and 24 h. […]
as §1, with “compound 17” for “compounds 11, 12”, “compound 37” for “35”, “PEG400+75% (20% Captisol in Water)” for “(30% Solutol)+75% saline”
Experimental compound 18 was dissolved in a mixture of 5% DMA+30% PEG400+65% (20% Captisol in Saline) to prepare a solution. The compound solution was intravenously injected into a beagle at a dose of 1.0 mg/kg. The blood was collected at time points of 0 min, 5 min, 15 min, 30 min, 1 h, 2 h, 4 h, 6 h, 8 h, 10 h and 24 h.
About 1 mL of blood was collected via the upper extremity, and the collected blood was placed in an anticoagulation tube containing EDTA-K2. The blood samples were centrifuged at 1800 g for 5 min at 4° C. to give plasma samples which were prepared within 30 min after blood collection. The plasma samples were stored in a refrigerator at −80° C. before test.
The samples to be tested were taken out from the refrigerator at −80° C., and vortexed for 5 min after naturally thawed at room temperature. 20 μL of plasma samples were each pipetted into a 1.5 mL centrifuge tube, and 200 μL of internal standard working solution (a solution of tolbutamide in methanol) at 100 ng/mL was added. The resulting mixture was mixed well, vortexed for 5 min, and then centrifuged at 12,000 rpm for 5 min. 50 μL of the supernatant was pipetted into a 96-well plate with 150 μL of water per well, and the plate was vortexed for 5 min and mixed well before LC-MS/MS analysis.
The concentrations of test samples were calculated by Analyst 1.6.3 from AB Sciex. Parameters such as mean, standard deviation and coefficient of variation (excluding those output directly by Analyst 1.6.3) were calculated by Microsoft Excel. PK parameters were calculated by Pharsight Phoenix 6.1 software NCA (Tmax was in median).

[1] = iv, n=3, read-out: AUClast iv (area under concentration-time curve for 0-24 h)
[2] = iv, n=3, read-out: tz1/2 iv (terminal half-life) (converted)
[3] = po (gavage), n=3, read-out: AUClast po (area under concentration-time curve for 0-24 h)
[4] = po (gavage), n=3, read-out: tz1/2 po (terminal half-life) (converted)

Row | SMILES | AUC(0-t) [1] [ng·h/mL] | clearance (iv) [mL/min/kg] | Vd (iv) [L/kg] | half-life [2] [h] | bioavailability [%] | Tmax (po (gavage)) [h] | AUC(0-t) [3] [ng·h/mL] | half-life [4] [h]
1 | CC(C)n1cc(-c2ccc(F)cc2)c(=O)c(C(=O)Nc2ccc(Oc3ccnc(N)c3Cl)cn2)n1 [Compound 11, N-(5-((2-amino-3-chloropyridin-4-yl)oxy)pyridin-2-yl)-5-(4-fluorophenyl)-1-isopropyl-4-oxo-1,4-dihydropyridazine-3-carboxamide] | 3320 | 4.33 | 5.36 | 15 | 37.3 | 1 | 1360 | 5.97
2 | CC(C)n1cc(-c2ccc(F)cc2)c(=O)c(C(=O)Nc2ncc(Oc3ccnc(N)c3Cl)cn2)n1 [Compound 12, N-(5-((2-amino-3-chloropyridin-4-yl)oxy)pyrimidin-2-yl)-5-(4-fluorophenyl)-1-isopropyl-4-oxo-1,4-dihydropyridazine-3-carboxamide] | 1530 | 10.8 | 1.04 | 1.1 | 78 | 0.5 | 1190 | 1.24
3 | Nc1nccc(Oc2ccc(NC(=O)c3nn(C4CC4)cc(-c4ccc(F)cc4)c3=O)nc2)c1Cl [Compound 17, N-(5-((2-amino-3-chloropyridin-4-yl)oxy)pyridin-2-yl)-1-cyclopropyl-5-(4-fluorophenyl)-4-oxo-1,4-dihydropyridazine-3-carboxamide] | 3360 | 5 | 3.16 | 7.46 | 109 | 1 | 3670 | 13.6
4 | Nc1nccc(Oc2cnc(NC(=O)c3nn(C4CC4)cc(-c4ccc(F)cc4)c3=O)nc2)c1Cl [Compound 18, N-(5-((2-amino-3-chloropyridin-4-yl)oxy)pyrimidin-2-yl)-5-(4-fluorophenyl)-1-cyclopropyl-4-oxo-1,4-dihydropyridazine-3-carboxamide] | 3730 | 4.83 | 0.65 | 1.54 | 29.7 | 1 | 1090 | 2

The remaining lines, values ahead:

Row | AUC(0-t) [1] [ng·h/mL] | clearance (iv) [mL/min/kg] | Vd (iv) [L/kg] | half-life [2] [h] | bioavailability [%] | Tmax (po (gavage)) [h] | AUC(0-t) [3] [ng·h/mL] | half-life [4] [h] | SMILES
5 | 4120 | 3.83 | 3.16 | 9.32 | 50.7 | 1 | 2200 | 4.01 | C=CCn1cc(-c2ccc(F)cc2)c(=O)c(C(=O)Nc2ccc(Oc3ccnc(N)c3Cl)cn2)n1 [Compound 35, 1-allyl-N-(5-((2-amino-3-chloropyridin-4-yl)oxy)pyridin-2-yl)-5-(4-fluorophenyl)-4-oxo-1,4-dihydropyridazine-3-carboxamide]
6 | 2600 | 6.83 | 1.07 | 1.79 | 70.6 | 0.5 | 1830 | 1.88 | C=CCn1cc(-c2ccc(F)cc2)c(=O)c(C(=O)Nc2ncc(Oc3ccnc(N)c3Cl)cn2)n1 [Compound 37]
